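Exposure lasted 48 hours, with cells grown in 96-well plates and compounds tested at five concentrations. GI50: concentration for 50% inhibition of growth. Definition used: TGI = concentration required for complete inhibition of growth.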
Experiments:
Assay in all cases: NCI anticancer screen, dose series, 48 h
[1] = system: 786-0 renal
[2] = system: HCC-2998 colon
[3] = system: HOP-92 NSCLC
[4] = system: HT29 colon
[5] = system: NCI-H226 lung
[6] = system: PC-3 prostate
[7] = system: SK-MEL-5 melanoma
[8] = system: SR leukemia
[9] = system: TK-10 renal
[10] = system: UACC-257 melanoma

Row | Compound | GI50 [1] [µM] | TGI [1] [µM] | GI50 [2] [µM] | TGI [2] [µM] | GI50 [3] [µM] | TGI [3] [µM] | GI50 [4] [µM] | TGI [4] [µM] | GI50 [5] [µM] | TGI [5] [µM] | GI50 [6] [µM] | TGI [6] [µM] | GI50 [7] [µM] | TGI [7] [µM] | GI50 [8] [µM] | TGI [8] [µM] | GI50 [9] [µM] | TGI [9] [µM] | GI50 [10] [µM] | TGI [10] [µM]
1 | Cc1cccc(-c2[nH]ncc2-c2ccc3ncccc3n2)n1 | 11.1 | > 25 | > 25 | > 25 | 10 | > 25 | 12.1 | > 25 | 9.92 | > 25 | > 17.3 | > 25 | 9.63 | > 18.5 | 9.2 | > 25 | 13 | > 25 | > 21.3 | > 25
2 | CCOC(=O)c1ccccc1OC(=O)NNc1ccccc1 | 1.18 | > 100 | 0.583 |  | 6.92 | > 100 | > 100 | > 100 | > 23.7 | > 100 | 7.91 | > 100 | 1.43 | > 33.2 | 1.47 | > 100 | 7.05 | > 100 | 5.61 | > 100
3 | CC1(C)N=C(N)N=C(N)N1c1ccc(CCCCc2ccccc2)c(Cl)c1 | 0.055 | 13.1 | 0.131 | 3.52 | 0.464 | 4.48 | < 0.01 | 1.55 | 0.275 | 24.4 | < 0.0172 | 6.88 | 0.0628 | 1.32 | 0.0259 | 5.81 | 0.0721 | 17.5 | 0.247 | 5.26
4 | C=C(C)[C@@H]1CC[C@]2(COCCC#N)CC[C@]3(C)[C@H](CC[C@@H]4[C@@](C)(CCCNCCC#N)[C@H](C(=C)C)CC[C@]43C)[C@@H]12 | 10.6 | 30.1 | 9.08 | 20.1 | 7.03 | 28.5 | 7.88 | 19.8 | 8.88 | 18.5 | 10.3 | > 50 | 20.2 | > 50 | 8.48 | 42.3 | 16 | > 50 | 19.8 | > 50
5 | Cc1ccc(NC(=O)c2ccc(CN3CCN(C)CC3)cc2)cc1Nc1nccc(-c2cccnc2)n1 | 16.1 | 33.6 | 21.3 | 38.5 | 12.6 | 37.3 | 4.88 | 24.1 | 19.6 | 49.9 | 21.5 | 71.6 | 12.3 | 24.9 | 4.72 | > 51.3 | 28.1 | 70.6 | 17.1 | 38.5
6 | CO/C=C/C(=O)c1cc2cnc3c(=N)cc(NC(=O)C(C)C)c([nH]1)c23 | 0.0981 | 0.695 | 0.291 | 1.63 | 0.00796 | 0.0456 | 0.0801 | 0.721 | 0.106 | 1.26 | 0.0183 | 0.817 | 0.075 | 0.183 | 0.0489 | 0.427 | 0.0266 | 0.258 | 0.0901 | 0.862
7 | Cn1cc(C2=C(c3ccccc3[N+](=O)[O-])C(=O)NC2=O)c2ccccc21 | 3.2 | > 25 | 7.79 | > 23.7 | 6.08 | 16.6 | 1.81 | 12.4 | 4.37 | > 20.3 | 1.65 | 11.6 | 2.86 | 8.06 | 2.33 | 12.9 | 5.58 | 18.6 | 7.11 | 17.7
8 | CSc1ccc(-c2ccccc(=O)c2O)cc1 | 0.447 | 12.6 | 0.594 | > 100 | 1.61 | 73.3 | 0.714 | > 100 | 1.68 | 37 | 0.748 | > 100 | 0.413 | 5.05 | 0.404 | 14.5 | 0.593 | > 100 | 0.749 | > 100
9 | Nc1nc2c(ncn2C2CCC(CO)O2)c(=O)n1C(=O)c1ccccc1 (centres undefined) |  | > 100 |  | > 100 |  | > 100 |  | > 100 |  | > 100 |  | > 100 |  | > 100 |  | > 100 |  | > 100 |  | > 100
10 | N#Cc1c(NC(=O)NCc2ccccc2)sc2c1CCCC2 | 0.822 | > 100 | 1.72 | > 100 | 1.79 | 71 | 0.392 | > 100 | 1.3 | > 41.3 | 0.559 | > 100 | 0.439 | 6.93 | 0.35 | > 100 | 14.6 | > 100 | > 71 | > 100
11 | C[C@]12CC[C@@H]3c4cc(OC(F)F)c(O)cc4CC[C@H]3[C@@H]1CC[C@@H]2OS(N)(=O)=O | 1.26 | > 100 | 1.94 | 33.4 | 6.84 | 79.2 | 0.846 | 17.8 | 6.64 | 60.5 | 0.729 | 97.6 | 0.634 | 13.3 | 0.422 | > 100 | 14.6 | > 92.5 | 16.7 | 79.6
12 | O=c1cc(-c2ccccc2)oc2ccc(OC/C(=N/O)c3ccccc3)cc12 | 8.92 | > 50 | 11 | > 50 | 25.2 | > 50 | 2.02 | > 50 | 15.9 | > 50 | 2.46 | 16.1 | 1.82 | 11.7 | 1.73 | > 50 | > 50 | > 50 | 5.12 | > 50
13 | CCN(CC)CCNc1ccc(C)c2sc3cc(Cl)ccc3c(=O)c12 | 1.66 | 3.1 | 1.75 | 3.58 | 0.665 | 2.24 | 1.94 | 3.48 | 1.74 | 3.58 | 1.54 | 3.01 | 1.68 | 3.07 | 1.6 | 3.57 | 2.2 | 3.77 | 1.92 | 3.42
14 | Nc1c(C(=O)c2ccc(-c3cccnc3)cc2)cnn1-c1ccc(F)cc1 | > 18.4 | > 25 | > 25 | > 25 | > 25 | > 25 | > 21.6 | > 25 | > 16.2 | > 25 | > 25 | > 25 | > 15.2 | > 25 | > 25 | > 25 | > 19.3 | > 25 | > 22.4 | > 25
15 | O=C1C(Cl)=C(Sc2nnc3c4ccccc4c4ccccc4c3n2)C(=O)c2ccccc21 |  | 33.9 |  | 94.2 |  | 33.2 |  | 62 |  | 40.9 |  | 46.4 |  | 22.4 |  | > 56 |  | 37.4 |  | 30
16 | COc1ccc(N=Cc2c(O)ccc3c2oc2cc(Cl)c(O)c(Cl)c23)cc1 | 19.2 | 52 | 15 | 29.3 | 6.09 | 32.6 | 16.2 | 37.8 | 13.7 | 41.7 | 14.8 | 57.3 | 10.5 | 27.7 | 10.9 | 51.7 | 20.3 | 48.3 | 15.9 | 48.8
17 | CC(C)(C)N1CCC1CN (centres undefined) | > 100 | > 100 | > 100 | > 100 | > 100 | > 100 | > 100 | > 100 | > 100 | > 100 | > 100 | > 100 | > 100 | > 100 | > 100 | > 100 | > 100 | > 100 | > 100 | > 100
18 | CC12OOC(c3ccccc31)c1c2ccc2ccccc12 (centres undefined) |  | 22.3 |  | 16.2 |  | 9.94 |  | 6.02 |  | 39.3 |  | 18.8 |  | 21.6 |  | 3.24 |  | 22.3 |  | 26.8

From PubChem BioAssay (NCI)
